# US6895396B2, “Neural network methods to predict enzyme inhibitor or receptor ligand potency” (Albert Einstein College of Medicine of Yeshiva University, priority 1998, dated 2005)
# Target: T1, adenosine deaminase (Homo sapiens, UniProt P00813)
# T1 sequence (P00813 1-363): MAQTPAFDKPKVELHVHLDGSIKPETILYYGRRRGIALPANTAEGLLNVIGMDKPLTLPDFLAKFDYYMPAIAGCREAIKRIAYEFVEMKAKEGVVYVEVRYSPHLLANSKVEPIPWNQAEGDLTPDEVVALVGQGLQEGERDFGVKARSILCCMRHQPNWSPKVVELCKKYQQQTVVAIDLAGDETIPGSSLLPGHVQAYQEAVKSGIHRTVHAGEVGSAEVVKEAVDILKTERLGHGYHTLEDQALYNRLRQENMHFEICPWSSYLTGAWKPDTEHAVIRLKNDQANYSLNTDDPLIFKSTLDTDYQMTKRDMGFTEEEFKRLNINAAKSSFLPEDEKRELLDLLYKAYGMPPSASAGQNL
# Experiment: Adenosine deaminase binding free energy, experimental
# Conditions: not given
row,Molecule,inhibitor quality in words
1,"OC[C@H]1O[C@@H](n2cnc3c2N=CNC3)[C@H](O)[C@@H]1O [1,6-dihydropurine ribonucleoside]",not a good inhibitor

# Same assay, conditions: binding free energy, dimensionless
row,Molecule,ΔG/RT (experimental)
1,OC[C@H]1O[C@@H](n2cnc3c2NC=N[C@@H]3O)[C@H](O)[C@@H]1O [hydrated purine ribonucleoside],−29
2,Nc1ncnc2c1ncn2[C@@H]1O[C@H](CO)[C@@H](O)[C@H]1O [adenosine],−10
3,(R)-coformycin,−25
4,"OC[C@H]1O[C@@H](n2cnc3c2N=CNC3)[C@H](O)[C@@H]1O [1,6-dihydropurine ribonucleoside]",−12

# Tested on: AMP nucleosidase
# Experiment: not given
# Conditions: binding free energy, dimensionless
row,Molecule,ΔG/RT (experimental)
1,Nc1ncnc2c1ncn2[C@@H]1O[C@H](COP(=O)(O)O)[C@@H](O)[C@H]1O [AMP],−9.0
2,aminopyrazolo pyrimidine ribonucleotide,−12
3,Nc1ncnc2c1ccn2[C@@H]1O[C@H](CO)[C@@H](O)[C@H]1O [tubercidin],−9.9
4,Nc1ncnc2c([C@@H]3O[C@H](CO)[C@@H](O)[C@H]3O)[nH]nc12 [formycin],−17

# Target: cytidine deaminase (Escherichia coli, UniProt P0ABF6)
# Sequence (P0ABF6 whole entry): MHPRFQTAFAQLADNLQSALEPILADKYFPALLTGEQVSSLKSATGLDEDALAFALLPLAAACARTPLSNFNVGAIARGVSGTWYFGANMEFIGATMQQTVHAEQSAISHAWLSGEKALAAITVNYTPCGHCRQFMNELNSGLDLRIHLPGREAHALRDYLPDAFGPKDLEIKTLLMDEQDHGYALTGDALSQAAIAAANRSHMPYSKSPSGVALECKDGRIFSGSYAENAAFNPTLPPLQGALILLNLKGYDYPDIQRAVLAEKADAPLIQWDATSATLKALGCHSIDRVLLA
# Experiment: not given
# Conditions: binding free energy from the literature; cited from earlier work
row,Molecule,ΔG/RT (experimental)
1,"NC1=NC(=O)N([C@@H]2O[C@H](CO)[C@@H](O)[C@H]2O)CC1 [5,6-dihydrocytidine]",−9.1
2,O=C1NC(O)C(Cl)=CN1[C@@H]1O[C@H](CO)[C@@H](O)[C@H]1O (some centres unmarked) [hydrated 5-chloro-pyrimidine-2-one ribonucleoside],−19
3,Nc1ccn([C@@H]2O[C@H](CO)[C@@H](O)[C@H]2O)c(=O)n1 [cytidine],−9.9
4,O=C1NC(O)C(F)=CN1[C@@H]1O[C@H](CO)[C@@H](O)[C@H]1O (some centres unmarked) [hydrated 5-fluoro-pyrimidine-2-one ribonucleoside],−24
5,O=c1ccn([C@@H]2O[C@H](CO)[C@@H](O)[C@H]2O)c(=O)[nH]1 [uridine],−6.0
6,"O=C1NCC=CN1[C@@H]1O[C@H](CO)[C@@H](O)[C@H]1O [3,4-dihydrozebularine]",−10
7,hydrated 5-bromo-pyrimidine-2-one ribonucleoside,−18
8,hydrated pyrimidine-2-one ribonucleoside,−27
